Source: PMC9936921 (Oncogene, 2018)
Where two headings read alike, the source gives them in different places.

Columns and labels:
Assay in all cases: SPR
Type in all cases: binding
CD99 [1] = biological target: CD99 (Homo sapiens, UniProt P14209)
CD99 [2] = biological target: T1, CD99 (Homo sapiens, UniProt P14209); remark: listed apart in the source
T1 sequence (P14209 23-185): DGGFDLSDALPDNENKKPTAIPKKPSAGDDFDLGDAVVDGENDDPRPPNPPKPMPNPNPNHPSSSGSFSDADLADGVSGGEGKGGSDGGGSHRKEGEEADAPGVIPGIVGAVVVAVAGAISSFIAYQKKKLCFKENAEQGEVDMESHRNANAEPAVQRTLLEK

CD99 [3] = biological target: T1, CD99; remark: listed apart in the source

`Nc1nc(Cl)nc2c1ncn2[C@H]1C[C@H](O)[C@@H](CO)O1` [cladribine] was tested, and the Kd (CD99 [1]) was 3.8 ± 3.3 µM.

`Nc1nc(Cl)nc2c1ncn2[C@@H]1O[C@H](COP(=O)(O)OP(=O)(O)OP(=O)(O)O)[C@@H](O)[C@@H]1F` [clofarabine-5’-triphosphate] was tested, and the Kd (CD99 [2]) was 3.7 µM.

`Nc1nc(Cl)nc2c1ncn2[C@@H]1O[C@H](CO)[C@@H](O)[C@@H]1F` [clofarabine] was tested, and the Kd (CD99 [3]) was 5.3 ± 3.2 µM.
